Values after ≈ are worked out from the molar mass of the structure shown. “Also recorded” adds a separate entry of the source.
Assays:
[1] = tested on: T. cruzi Epi; assay: Anti-parasitic activity on T. cruzi epimastigotes (Trypan Blue differential count); conditions: for IC50: Trypanosoma cruzi, read-out: Epi IC50 ± SD, epimastigotes, 72 h; for IC50 / Epi IC50 ± SD: 72 h; for Epi SI (CC50/IC50): Vero CC50 / epimastigote IC50; for Epi IC50 ± SD: epimastigotes
Procedure: (§1) Vero lineage derived from African Green Monkey Kidney (Vero, ATCC CCL-81) was used for selectivity index determination and for Tryp and Amas production. These cells were grown on DMEM (Life Technology, CA, USA) media, pH: 7.4; supplemented with 10% of inactivated Fetal Bovine Serum (FBSi), 1000 U/mL of penicillin, and 100 μg/mL of streptomycin; and incubated at 37 °C with 90% humidity and a 5% CO2 atmosphere. Epi of T. cruzi I (TcI) SYLVIO-X10 strain, were donated by Dr. Marcos López-Casillas, from Fundación Cardiovascular de Colombia and grown in LIT medium (Merck) supplemented with 10% FBSi, and incubated at 28 °C. The Trypomastigotes Derived from Cells (TDC) were obtained by infection of a confluent monolayer of Vero cells with 12 day-old stationary growth phase Epi and incubated under the same conditions described above for Vero cells.
(§2) T. cruzi Epi (5 × 10^5 Epi/mL) and TDC (5 × 10^5 cells/mL) in the exponential growth phase were plated in a 96-well standard microplate in LIT medium (at 28 °C) and in D-MEM medium (at 37 °C in a 5% CO2 atmosphere), respectively. Both cultures were supplemented with 10% FBSi. For the trypanocidal assays, the EOs or their terpenes were added at varying concentrations (3.7 to 100 μg/mL) and incubated at the same culture conditions for 72 (Epi) or 24 h (Tryp). The growth inhibition was estimated by light microscopy through a differential count using the Trypan Blue (Gibco) dye exclusion technique. […] For Amas assays, a monolayer of Vero cells (3 × 10^5 cel/mL) was infected with TDC in a 1:3 cell:parasite ratio and incubated for 24 h until Amas development occurred. Then, these intracellular forms were exposed for 120 h to EOs or terpenes in a treatment applied in two doses (at 0 and 48 h), under the same conditions described above. Growth inhibition analysis was assessed in Giemsa-stained films using light microscopy to determine the infected and uninfected cell percentage in a total of 300 cells. Cells without treatment and those treated with BNZ were used as negative and positive controls, respectively.

[2] = tested on: T. cruzi Tryp (TDC); assay: Anti-parasitic activity on T. cruzi trypomastigotes derived from cells (Trypan Blue differential count); conditions: for IC50: Trypanosoma cruzi, read-out: Tryp IC50 SD, trypomastigotes, 24 h; for IC50 / Tryp IC50 SD: 24 h; for Tryp SI (CC50/IC50): Vero CC50 / trypomastigote IC50; for Tryp IC50 SD: trypomastigotes
Procedure: as §1, §2

[3] = tested on: T. cruzi Amas; assay: Anti-parasitic activity on intracellular T. cruzi amastigotes in Vero cells (Giemsa count); type: cell-based, Trypanosoma cruzi; conditions: for IC50: Trypanosoma cruzi, Vero, read-out: Amas IC50 ± SD; for IC50 / Amas IC50 ± SD: intracellular amastigotes in Vero, 120 h, two doses (0 and 48 h); for Amas SI (CC50/IC50): Vero CC50 / amastigote IC50
Procedure: as §1, §2

[4] = Cytotoxic activity on Vero cells (WST-1); conditions: African green monkey, pH 7.4
Procedure: as §1
(§3) Vero cells (3 × 10^5 cel/mL) were incubated at 37 °C in a 5% CO2 atmosphere and at 95% humidity for 24 h to ensure the formation of a confluent monolayer. After this time, the cells were treated with the EOs or their terpenes in four different concentrations (11.1, 33.3, 100, and 300 μg/mL). Thereafter, the lineages were incubated for 70 h at 37 °C in a 5% CO2 atmosphere and re-incubated 2 more hours with WST-1 (Roche, Mannheim, Germany), after which Optical Density (OD) measurements were analyzed by spectrophotometry. The cytotoxicity percentage was calculated using [(OD450nm Control – OD450nm treatment) / […])] × 100. The results were expressed as Cytotoxic Concentration 50 (CC50).

[5] = tested on: T. cruzi Epi; assay: Flow cytometry Annexin V / SYTOX Green cell death analysis on epimastigotes; type: cell-based, Trypanosoma cruzi; conditions: 48 h at 2xIC50, flow cytometry
Procedure: For cell death characterization, an Annexin V/Dead with SYTOX® Green (Molecular Probes, Invitrogen) kit was used following the procedure specified in the manufacturer’s instructions. The phosphatidylserine externalization was determined by employing a recombinant Annexin V conjugated to the Orange Fluorescent phycobiliprotein R-PE, and to the necrotic cells using SYTOX™ Green nucleic acid stain. Briefly, 1 × 10^6 Epi per mL were treated with 2xIC50 for 48 h, washed, and suspended in 1X Annexin-Binding Buffer.

[6] = tested on: T. cruzi Epi; assay: Morphological analysis by optical and fluorescent microscopy (DIC, DAPI, MitoTracker); type: cell-based, Trypanosoma cruzi; conditions: 2xIC50, 48 h
Procedure: (§4) The death phenotype was analyzed by optical and fluorescent microscopy using phase contrast (fluorescence microscopy, Nikon Eclipse Ni). […] Determination of an oligonucleosomal-DNA ladder in treated parasites was also evaluated through DNA gel electrophoresis. Evaluation of the mitochondrial potential membrane in living parasites was performed with MitoTracker Red CMXRos (579 nm/599 nm […] wavelength). As a positive and negative apoptosis control, a 15 day-old Epi culture and an untreated fresh parasite culture were used, respectively.

[7] = tested on: Vero cells; assay: Cytotoxic activity on Vero cells (WST-1); conditions: Vero cells, 72 h, WST-1
Procedure: as §1, §3

[8] = tested on: T. cruzi Epi; assay: DNA fragmentation by TUNEL assay on epimastigotes; type: cell-based, Trypanosoma cruzi; conditions: for DNA fragmentation (positive TUNEL) percentage: Epi, 48 h, 2xIC50; for TUNEL assay result: treated parasites
Procedure: as §4

[9] = Vero cells (ATCC CCL-81), kidney

Compound	IC50 [1]	Epi SI (CC50/IC50) [1]	Epi IC50 ± SD [1]	IC50 [2]	Tryp SI (CC50/IC50) [2]	Tryp IC50 SD [2]	IC50 [3]	Amas SI (CC50/IC50) [3]	CC50 at 72 h [4, 9]	percentage of cell death [5]	morphological changes of treated parasites [6]	Amas IC50 ± SD [3]	Vero CC50 ± SD [7]	DNA fragmentation (positive TUNEL) percentage [8]	TUNEL assay result [8]	further results
CC(C)=CCCC(C)=CC=O (mixture of isomers) [Citral, citral]	37.2 µg/mL	2.4	37 ± 0.7 µg/mL	20.8 µg/mL	4.3	21 ± 1 µg/mL	49 ± 2.3 µg/mL	1.8	90 ± 3.9 µg/mL	78.4%	typical characteristics of apoptosis					
O=C(Cn1ccnc1[N+](=O)[O-])NCc1ccccc1 [BNZ, Benznidazole, reference compound]	17 ± 0.9 µg/mL (≈ 65.3 µM)	8.2		1.2 ± 0.1 µg/mL (≈ 4.61 µM)	116.3		6 ± 0.9 µg/mL (≈ 23.1 µM)	22.4	139 ± 2.3 µg/mL (≈ 534 µM)		cellular edema and loss of cellular membrane integrity, but with conserved mitochondrial energetic potential	6.2 ± 0.9 µg/mL				
C=C(C)[C@H]1CC=C(C)CC1 [Limonene, D (+) limonene]						9 ± 0.8 µg/mL				89.2%	typical characteristics of apoptosis	29 ± 0.7 µg/mL	297 ± 2.4 µg/mL	94%	positive	Amas IC50 ± SD ([3]; listed as limonene): 28.7 µg/mL
C=C(C)[C@H]1CC=C(C)C(=O)C1 [Carvone, S (+) carvone]	177 ± 7.9 µg/mL (≈ 1180 µM)	1.4		124 ± 8 µg/mL (≈ 825 µM)	1.9		> 100 µg/mL									CC50 at 72 h [4]: 240 ± 4.1 µg/mL (≈ 1600 µM)
(−) caryophyllene oxide [CarOx]		4.3	30 ± 1.7 µg/mL		5.9	22 ± 0.3 µg/mL		2.7		95.7%	flagellum to be lost; also recorded: typical characteristics of apoptosis	47 ± 1.0 µg/mL	128 ± 4.2 µg/mL	99%	positive	cell death percentage (CDP) on Epi ([1]; at 50 μg/mL): 78 ± 2.3%; Epi IC50 ± SD ([1]; listed as caryophyllene oxide): 29.8 µg/mL; cell death percentage (CDP) on Tryp ([2]; at 50 μg/mL): 98 ± 0.5%; Tryp IC50 SD ([2]; listed as caryophyllene oxide): 21.6 µg/mL; Amas IC50 ± SD ([3]; listed as caryophyllene oxide): 47.4 µg/mL

Reference: article PMC6062979 (BMC Complementary and Alternative Medicine, 2018)
